From the supplement of paper PMC11208160
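Note: IS621 recombinase and bridge RNA in Escherichia coli cells.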

Assay: recombinant barcode read abundance after kanamycin selection (control-corrected) (log10(CPM+1)); higher = more efficient recombination; sequences stand for … in AGTGCAGAGAAAATCGGCCAGTTTTCTCTGCCTGCAGTCCGCATGCCGT…AGATTTATGCAGCGGACTGCCTTTCTCCCAAAGTGATAAACCGGACAGTATCATGGACCGGTTTTCCCGGTAATCCGTATTTGCAAGGTTGGTTTCACT; site = the 11-nt target
Method in brief: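 Pooled E. coli screen pairing targets with IS621 bridge RNA target-binding loops. Each oligo (promoter, target, barcode, J23119-driven first 104 bridge RNA bases) was Gibson-cloned into a vector with the remaining 73 bp and T7-inducible recombinase, then co-electroporated with a donor plasmid. Two replicates each were plated on chloramphenicol/ampicillin LB agar (control) or chloramphenicol/ampicillin/kanamycin with 0.1 mM IPTG. Recombination efficiency is recombinant-junction barcode counts as CPM, averaged, control-corrected, reported as log10(CPM+1).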
For “ACGCTATCTTGGGTTCTAACCTGTTGCTT (site CTAGCGACTCG)”, the “recombinant barcode read abundance (log10)” value was 0.159.
With “GTTTGTCCTTGGGTTCTAACCTGTTGCTT (site GTTTGTCCTAA)” the “recombinant barcode read abundance (log10)” value was 0.048.
With “GCTAAGTCTTGGGTTCTAACCTGTTGCGT (site GCTAAGTCTAC)” the “recombinant barcode read abundance (log10)” value was 2.61.
With “GTAAGGACTTGGGTTCTAACCTGTTGCTT (site GTAAGCACTAA)” the “recombinant barcode read abundance (log10)” value was 0.156.
For “AGGGATACTTGGGTTCTAACCTGTTGCTT (site AGGGAGACTAA)”, the “recombinant barcode read abundance (log10)” value was 0.303.
In the case of “TAGCTGACTTGGGTTCTAACCTGTTGCCT (site TAGCTGACTAG)”, the “recombinant barcode read abundance (log10)” value is reported as 1.28.
In the case of “CCGTAATCTTGGGTTCTAACCTGTTGCCT (site CCGTAAACTAG)”, the “recombinant barcode read abundance (log10)” value is reported as 0.0257.
With “GAGGGGACTTGGGTTCTAACCTGTTGCAG (site GAGGGGACTCT)” the “recombinant barcode read abundance (log10)” value was 2.76.
For “CCTAAGACTTGGGTTCTAACCTGTTGCCC (site CCTAAGACTCG)”, the “recombinant barcode read abundance (log10)” value was 0.0665.
In the case of “TCTAGGACTTGGGTTCTAACCTGTTGCAA (site TCTAGGACTTT)”, the “recombinant barcode read abundance (log10)” value is reported as 0.52.
For “CGAATCGCTTGGGTTCTAACCTGTTGCCT (site CGAATCGCTAG)”, the “recombinant barcode read abundance (log10)” value was 0.994.
In the case of “CTGGATCCTTGGGTTCTAACCTGTTGCCT (site CTGGATCCTAG)”, the “recombinant barcode read abundance (log10)” value is reported as 2.25.
With “ACTGGTCCTTGGGTTCTAACCTGTTGCGG (site ACTGGTCCTCC)” the “recombinant barcode read abundance (log10)” value was 2.93.
With “GCACTAGCTTGGGTTCTAACCTGTTGCGT (site GCACTAGCTAC)” the “recombinant barcode read abundance (log10)” value was 2.54.
In the case of “TTAGAGACTTGGGTTCTAACCTGTTGCCT (site TTAGAGACTAG)”, the “recombinant barcode read abundance (log10)” value is reported as 2.32.
In the case of “AGAGCTCCTTGGGTTCTAACCTGTTGCGG (site AGAGCTCCTCC)”, the “recombinant barcode read abundance (log10)” value is reported as 1.28.
With “CAATGGTCTTGGGTTCTAACCTGTTGCCT (site CAATGGTCTAA)” the “recombinant barcode read abundance (log10)” value was 0.376.
With “GTCACTACTTGGGTTCTAACCTGTTGCGT (site GTCACTACTAC)” the “recombinant barcode read abundance (log10)” value was 0.517.
For “CCTAAGCCTTGGGTTCTAACCTGTTGCGT (site CCTAAACCTAC)”, the “recombinant barcode read abundance (log10)” value was 1.23.
With “CTCCGAGCTTGGGTTCTAACCTGTTGCAC (site CTCCGAGCTGT)” the “recombinant barcode read abundance (log10)” value was 0.201.
For “TAGCTCACTTGGGTTCTAACCTGTTGCGG (site TAGCCCACTCC)”, the “recombinant barcode read abundance (log10)” value was 0.581.
In the case of “CCTTCTACTTGGGTTCTAACCTGTTGCTA (site CCTTCTACTTA)”, the “recombinant barcode read abundance (log10)” value is reported as 0.392.
For “GGTCGAACTTGGGTTCTAACCTGTTGCCT (site GGTCAAACTAG)”, the “recombinant barcode read abundance (log10)” value was 0.107.
With “CAGAGATCTTGGGTTCTAACCTGTTGCTT (site CAGAGATCTAA)” the “recombinant barcode read abundance (log10)” value was 1.33.
In the case of “GGGCTCCCTTGGGTTCTAACCTGTTGCCG (site TACAATTCTAT)”, the “recombinant barcode read abundance (log10)” value is reported as 0.128.
With “TAGGAGACTTGGGTTCTAACCTGTTGCGT (site TAGGAAACTAC)” the “recombinant barcode read abundance (log10)” value was 1.42.
With “ATATCTTCTTGGGTTCTAACCTGTTGCCT (site ATATCTTCTAG)” the “recombinant barcode read abundance (log10)” value was 1.03.
For “CAAACTCCTTGGGTTCTAACCTGTTGCAT (site CAAACTCCTAT)”, the “recombinant barcode read abundance (log10)” value was 0.713.
For “AAGGAACCTTGGGTTCTAACCTGTTGCCT (site GAGGAACCTAG)”, the “recombinant barcode read abundance (log10)” value was 0.951.
With “CTAAGGTCTTGGGTTCTAACCTGTTGCCT (site CTAAGGTCTAC)” the “recombinant barcode read abundance (log10)” value was 0.122.
In the case of “GTCAACTCTTGGGTTCTAACCTGTTGCCT (site GTTAACTCTAG)”, the “recombinant barcode read abundance (log10)” value is reported as 0.13.
With “TCATCTCCTTGGGTTCTAACCTGTTGCCT (site GCATCTCCTAG)” the “recombinant barcode read abundance (log10)” value was 0.0477.
In the case of “CACACGACTTGGGTTCTAACCTGTTGCCT (site CACACGTCTAG)”, the “recombinant barcode read abundance (log10)” value is reported as 0.109.
In the case of “AGGTTTGCTTGGGTTCTAACCTGTTGCTT (site AGGTTTGCTAA)”, the “recombinant barcode read abundance (log10)” value is reported as 0.00886.
In the case of “TAAGGTCCTTGGGTTCTAACCTGTTGCTT (site TAAGGTCCTAA)”, the “recombinant barcode read abundance (log10)” value is reported as 1.49.
In the case of “TCCGAAACTTGGGTTCTAACCTGTTGCAT (site TCCGAAACTAT)”, the “recombinant barcode read abundance (log10)” value is reported as 1.15.
In the case of “TAGACTACTTGGGTTCTAACCTGTTGCTA (site TAGACTACTCA)”, the “recombinant barcode read abundance (log10)” value is reported as 0.111.
For “GGGGAGTCTTGGGTTCTAACCTGTTGCTT (site GGGGAGTCTAA)”, the “recombinant barcode read abundance (log10)” value was 2.26.
For “TGACAGGCTTGGGTTCTAACCTGTTGCAG (site TGACAGGCTCT)”, the “recombinant barcode read abundance (log10)” value was 1.88.
For “TCGTGCACTTGGGTTCTAACCTGTTGCCT (site TCGTGCACTAG)”, the “recombinant barcode read abundance (log10)” value was 0.215.
In the case of “CAAACTCCTTGGGTTCTAACCTGTTGCCT (site CAAACTCCTAA)”, the “recombinant barcode read abundance (log10)” value is reported as 0.137.
For “TACAAGACTTGGGTTCTAACCTGTTGCGT (site TACAAGACTAC)”, the “recombinant barcode read abundance (log10)” value was 1.36.
With “AGGGATACTTGGGTTCTAACCTGTTGCGT (site AGGGATACTAC)” the “recombinant barcode read abundance (log10)” value was 3.32.
In the case of “CTCCCATCTTGGGTTCTAACCTGTTGCGT (site CTCCGATCTCC)”, the “recombinant barcode read abundance (log10)” value is reported as 0.165.
For “GGGGCACCTTGGGTTCTAACCTGTTGCCT (site GGGGCACCTAC)”, the “recombinant barcode read abundance (log10)” value was 0.0542.
In the case of “TTAGTCCCTTGGGTTCTAACCTGTTGCCT (site TTAGTTCCTAG)”, the “recombinant barcode read abundance (log10)” value is reported as 0.0847.
In the case of “TAATCCTCTTGGGTTCTAACCTGTTGCCT (site CAATCCTCTAG)”, the “recombinant barcode read abundance (log10)” value is reported as 0.0292.
For “GTCTTATCTTGGGTTCTAACCTGTTGCCT (site GTCTGATCTAG)”, the “recombinant barcode read abundance (log10)” value was 0.24.
For “AAGCATTCTTGGGTTCTAACCTGTTGCCT (site AAGCAGTCTAG)”, the “recombinant barcode read abundance (log10)” value was 0.254.
For “TCTGGGGCTTGGGTTCTAACCTGTTGCTG (site TCTGGGGCTCG)”, the “recombinant barcode read abundance (log10)” value was 0.792.
For “CATGCTTCTTGGGTTCTAACCTGTTGCCT (site AGAAAAGCTTT)”, the “recombinant barcode read abundance (log10)” value was 0.167.
In the case of “ACTGATACTTGGGTTCTAACCTGTTGCCT (site ACTGATTCTAG)”, the “recombinant barcode read abundance (log10)” value is reported as 0.241.
For “TTAGAGACTTGGGTTCTAACCTGTTGCCT (site TTAGAGGCTAG)”, the “recombinant barcode read abundance (log10)” value was 1.4.
In the case of “ACATGTACTTGGGTTCTAACCTGTTGCAT (site ACATGTACTAT)”, the “recombinant barcode read abundance (log10)” value is reported as 0.888.
In the case of “ACCCAGCCTTGGGTTCTAACCTGTTGCTT (site ACCCAGCCTAG)”, the “recombinant barcode read abundance (log10)” value is reported as 0.758.
In the case of “CCGTAATCTTGGGTTCTAACCTGTTGCCT (site CCGTAATCTAG)”, the “recombinant barcode read abundance (log10)” value is reported as 0.308.
For “GTGTACCCTTGGGTTCTAACCTGTTGCGA (site GTGTACCCTAC)”, the “recombinant barcode read abundance (log10)” value was 0.129.
For “AGGGAATCTTGGGTTCTAACCTGTTGCCT (site AGAGAATCTAG)”, the “recombinant barcode read abundance (log10)” value was 0.759.
With “CGACTGTCTTGGGTTCTAACCTGTTGCCT (site CGACTGTCTAG)” the “recombinant barcode read abundance (log10)” value was 1.92.
With “TCCACACCTTGGGTTCTAACCTGTTGCCT (site TCCACAACTAG)” the “recombinant barcode read abundance (log10)” value was 0.122.
With “GGGGCAACTTGGGTTCTAACCTGTTGCTA (site CGGGCTACTTA)” the “recombinant barcode read abundance (log10)” value was 0.0424.
In the case of “TTAGTCCCTTGGGTTCTAACCTGTTGCCT (site TTAGTCCCTAG)”, the “recombinant barcode read abundance (log10)” value is reported as 2.42.
For “ACGTCAACTTGGGTTCTAACCTGTTGCCT (site ACGTCAACTAG)”, the “recombinant barcode read abundance (log10)” value was 0.0389.
With “CTAATTGCTTGGGTTCTAACCTGTTGCAA (site CTAGTTGCTTT)” the “recombinant barcode read abundance (log10)” value was 0.344.
With “ACCTACGCTTGGGTTCTAACCTGTTGCCT (site ACCTACTCTAG)” the “recombinant barcode read abundance (log10)” value was 0.23.
In the case of “TAGGCCACTTGGGTTCTAACCTGTTGCCT (site TAGGCCACTAG)”, the “recombinant barcode read abundance (log10)” value is reported as 0.592.
With “GTAGACCCTTGGGTTCTAACCTGTTGCCT (site GTAGACCCTAG)” the “recombinant barcode read abundance (log10)” value was 2.5.
In the case of “ACCGCGTCTTGGGTTCTAACCTGTTGCAT (site TTGATAGCTTA)”, the “recombinant barcode read abundance (log10)” value is reported as 0.0509.
For “GTTTACGCTTGGGTTCTAACCTGTTGCCT (site GTTTAAACTAG)”, the “recombinant barcode read abundance (log10)” value was 0.0797.
With “TGGGTCCCTTGGGTTCTAACCTGTTGCCT (site TGTGTCCCTAG)” the “recombinant barcode read abundance (log10)” value was 0.0764.
With “GAGGTCCCTTGGGTTCTAACCTGTTGCGG (site CTCCCTGCTAG)” the “recombinant barcode read abundance (log10)” value was 0.2.
With “GCCAAACCTTGGGTTCTAACCTGTTGCCT (site GCCACACCTAG)” the “recombinant barcode read abundance (log10)” value was 0.0741.
For “TTATCCGCTTGGGTTCTAACCTGTTGCCT (site TTATCCGCTAG)”, the “recombinant barcode read abundance (log10)” value was 1.77.
In the case of “TACAAGTCTTGGGTTCTAACCTGTTGCCT (site CTACGACCTCC)”, the “recombinant barcode read abundance (log10)” value is reported as 0.289.
With “GCAAGTTCTTGGGTTCTAACCTGTTGCCT (site GGAAGTTCTAG)” the “recombinant barcode read abundance (log10)” value was 0.172.
In the case of “ACTCCGTCTTGGGTTCTAACCTGTTGCCT (site ACTCCGTCTAG)”, the “recombinant barcode read abundance (log10)” value is reported as 1.28.
In the case of “CACAGACCTTGGGTTCTAACCTGTTGCCT (site TACAGACCTAG)”, the “recombinant barcode read abundance (log10)” value is reported as 0.251.
In the case of “GGAATTCCTTGGGTTCTAACCTGTTGCCT (site GGAATTCCTAG)”, the “recombinant barcode read abundance (log10)” value is reported as 0.0376.
In the case of “TTCCAATCTTGGGTTCTAACCTGTTGCCA (site TGCCAATCTAG)”, the “recombinant barcode read abundance (log10)” value is reported as 0.0654.
With “TAGGTCCCTTGGGTTCTAACCTGTTGCGA (site TAGGTCCCTTC)” the “recombinant barcode read abundance (log10)” value was 3.11.
In the case of “TCACGGACTTGGGTTCTAACCTGTTGCCT (site TCCCGGACTAG)”, the “recombinant barcode read abundance (log10)” value is reported as 0.101.
With “CACGAGCCTTGGGTTCTAACCTGTTGCCT (site CACGAGCCTAG)” the “recombinant barcode read abundance (log10)” value was 2.24.
In the case of “ACTGGGTCTTGGGTTCTAACCTGTTGCTT (site ACTGAGTCTAA)”, the “recombinant barcode read abundance (log10)” value is reported as 0.782.
For “GTGGCCACTTGGGTTCTAACCTGTTGCCT (site GTGGCCACTAG)”, the “recombinant barcode read abundance (log10)” value was 1.74.
With “GTAACTGCTTGGGTTCTAACCTGTTGCCT (site GTAACTGCTAG)” the “recombinant barcode read abundance (log10)” value was 0.941.
For “ATCTGTTCTTGGGTTCTAACCTGTTGCCT (site ATCTGTTCTAG)”, the “recombinant barcode read abundance (log10)” value was 0.327.
